Test results published in US8921414B2, “Spiroketals” (EcoBiotics Ltd, priority 2005, dated 2014).
Values after ≈ are worked out from the molar mass of the structure shown.

Tests used:
[1] = system: K562 leukemia; assay: Cell growth inhibition (Table 22), K562; type: cell-based; settings: Homo sapiens, read-out: IC50 (drug dose which inhibits cell growth by 50%) K562
Procedure: (§1) The isolated compounds were tested against a number of human and non-human cancer cell lines. The human tumor cell lines were: MCF-7, MDA-MB-231 and T47D, breast cancer; DU145 and PC3, prostate cancer; CI80-13S, ovarian cancer; MM96L, D04, SkMel5, MM418c5 melanoma; HT29, colon cancer; K562 and HL60, leukemia. Mouse cell lines were the B16 mouse melanoma and LK2 UV-induced squamous cell carcinoma (SCC). Neonatal foreskin fibroblasts (NFF) were used as normal control cells. Cells were cultured at 37° C. in 5% carbon dioxide/air, in RPMI 1640 medium containing 10% fetal calf serum.

[2] = system: NS1 murine myeloma cell line; assay: CyTOX (Cy) cytotoxicity bioassay; type: cell-based; settings: weight of chemical in last well with activity; real value may be lower
Description: CyTOX (alternatively referred to herein as Cy) is a microtitre plate bioassay use to identify potential antitumor actives. CyTOX is a chromogenic bioassay with broad application to a wide range of tumor and non-tumor cell lines. […] CyTOX features a liquid media into which the test compound has been incorporated together with a novel chromogen. As the cells grow and divide the chromogen is metabolised from purple in a single step process to a colourless metabolite. CyTOX is routinely undertaken using NS1 murine myeloma cell line as a guide to mammalian cell toxicity. Briefly, in CyTOX the cells were applied to the media containing the test chemical and allowed to grow for 72 hours. The assay was monitored at 24, 48 and 72 hours and the active wells identified.

[3] = system: melanoma MM418c5; assay: Additional in vitro activity: antitumor activity, MM418c5; type: cell-based, human; settings: concentration with activity
[4] = system: melanoma MM96L; assay: Additional in vitro activity: antitumor activity, MM96L; type: cell-based, human; settings: concentration with activity
[5] = system: breast MCF-7; assay: Additional in vitro activity: antitumor activity, MCF-7; type: cell-based, human; settings: concentration with activity
[6] = system: leukemia K562; assay: Additional in vitro activity: antitumor activity, K562; type: cell-based, human; settings: concentration with activity
[7] = system: Drosophila melanogaster; assay: DipteraTOX insecticidal bioassay; design: key: A value of A in DipG, Dip P or Dip H represents very active; a value of P represents active; settings: 250 μg per mL in agar
Procedure: DipteraTOX. DipteraTOX is referred to herein as DipG, DipP and DipH. DipG represents no grazing of larva. DipP represents no pupae formation and Dip H represents no hatching of flies. A value of A in DipG, Dip P or Dip H represents very active and a value of P represents active. In DipteraTox the fly eggs are applied to the surface of an agar matrix containing 250 μg per mL of the test chemical and allowed to hatch, develop and pupate for a period up of two weeks. The assay was monitored at two discrete times to determine the extent of grazing of the agar matrix at Week 1 and the presence of adult flies at Week 2. […] Drosophila melanogaster was utilised for this assay.

[8] = system: MM96L melanoma; assay: Cell growth inhibition (Table 22), MM96L; type: cell-based; settings: Homo sapiens, read-out: IC50 (drug dose which inhibits cell growth by 50%) MM96L
Procedure: as §1

[9] = system: Bacillus subtilis; assay: ProTOX (Bs) antibacterial bioassay; type: cell-based; settings: weight of chemical in last well with activity; real value may be lower
Description: ProTOX, (alternatively referred to herein as Bs) is an antibacterial bioassay, broadly applicable to most aerobic and anaerobic bacteria. The bioassay features a solid phase agar base into which the test compound has been incorporated together with a chromogen. As the bacteria multiply in the well, the chromogen is metabolised from blue in a two-step process to a colourless compound. Compounds with potent bactericidal activity inhibit bacterial metabolism of the chromogen while bacteriostatic compounds induce limited metabolism as indicated by an intermediate pink colour. ProTOX is broadly applicable to a range of gram-positive and gram-negative bacteria under aerobic and microaerophilic conditions. ProTOX assays were carried out using Bacillus subtilis. Briefly, in ProTOX, the bacteria (24 hour broth) were applied to the surface of an agar matrix containing the test sample and allowed to grow for 48 h. The assay was monitored at 24 and 48 hours and the active wells noted. Known antibiotics yield consistent colour transitions which are concentration and time dependent. These patterns provided an important guide to the early recognition of interesting characteristics.

[10] = system: Neonatal foreskin fibroblasts (NFF); assay: Cell growth inhibition (Table 22), NFF; type: cell-based; settings: Homo sapiens, read-out: IC50 (drug dose which inhibits cell growth by 50%) NFF
Procedure: as §1

[11] = system: CI80-13S ovarian cancer; assay: Cell growth inhibition (Table 22), C180-13S; type: cell-based; settings: Homo sapiens, read-out: IC50 (drug dose which inhibits cell growth by 50%) C180-13S
Procedure: as §1

[12] = system: Giardia spp.; assay: TriTOX (Gi) anti-protozoan bioassay; type: cell-based; settings: weight of chemical in last well with activity; real value may be lower
Description: TriTOX (alternatively referred to herein as Gi) is a microtitre plate based chromogenic bioassay for the screening of anti-protozoan activity of pathogenic, anaerobic/microaerophilic protozoans for example Giardia spp. and Trichomonas spp. The bioassays are run under anaerobic conditions and features species specific chromogens. […] Aliquots of each concentration(s) are applied to the wells of 96-well microtitre plates and diluted with media. […] The lowest concentration at which the compound is active is noted as the minimum inhibitory concentration (MIC). Additionally, microscopic inspection is carried out to identify any patterns of morphological change that may be consistent with a type of toxicity and therefore mode of action. Giardia spp. was utilized for this assay.

[13] = system: prostate DU145; assay: Additional in vitro activity: antitumor activity, DU145; type: cell-based, human; settings: concentration with activity
[14] = system: ovarian C180-13S; assay: Additional in vitro activity: antitumor activity, C180-13S; type: cell-based, human; settings: concentration with activity
[15] = system: MCF-7 breast cancer; assay: Cell growth inhibition (Table 22), MCF7; type: cell-based; settings: Homo sapiens, read-out: IC50 (drug dose which inhibits cell growth by 50%) MCF7
Procedure: as §1

[16] = system: DU145 prostate cancer; assay: Cell growth inhibition (Table 22), DU145; type: cell-based; settings: Homo sapiens, DU-145; read-out: IC50 (drug dose which inhibits cell growth by 50%) DU145
Procedure: as §1

[17] = system: normal human fibroblasts (NFF); assay: Additional in vitro activity: cytotoxic activity, NFF; type: cell-based; settings: concentration with activity
[18] = system: tumor cells; assay: Cell arrest, comparison of ethacrynic acid with EBI-23; type: cell-based

Compound	IC50 [1] [µg/mL]	Cy LD99 [2] [µg/mL]	antitumor activity against melanoma MM418c5 at [3] [µg/mL]	antitumor activity against melanoma MM96L at [4] [µg/mL]	antitumor activity against breast MCF-7 at [5] [µg/mL]	antitumor activity against leukemia K562 at [6] [µg/mL]	DipH (no hatching of flies) [7]	IC50 [8] [µg/mL]	Bs LD99 [9] [µg/mL]	IC50 [10] [µg/mL]	IC50 [11] [µg/mL]	Gi LD99 [12] [µg/mL]	antitumor activity against prostate DU145 at [13] [µg/mL]	antitumor activity against ovarian C180-13S at [14] [µg/mL]	IC50 [15] [µg/mL]	IC50 [16] [µg/mL]	cytotoxic activity against normal human fibroblasts (NFF) at [17] [µg/mL]	fold higher concentration than EBI-23 to achieve cell arrest [18] [fold]	selectivity against tumor cells [18]
CCCCCCCCCCCCCC(CC1CC(O)CC2(CC3OC(=O)C=CC3O2)O1)OC(C)=O (stereo not shown) [EBI-25]	6.1 (≈ 12.3 µM)	1.6	10	10	300	30	P	1.6 (≈ 3.23 µM)	25	3 (≈ 6.06 µM)	5 (≈ 10.1 µM)	50	30	3	0.34 (≈ 0.687 µM)	1 (≈ 2.02 µM)	30		
CCCCCCCCCCCCCC(CC1C=CCC2(CC3OC(=O)C=CC3O2)O1)OC(C)=O (stereo not shown) [EBI-42]	> 10			10				6 (≈ 12.6 µM)		> 10	6 (≈ 12.6 µM)			10	6 (≈ 12.6 µM)	> 10	> 10		
C=C(CC)C(=O)c1ccc(OCC(=O)O)c(Cl)c1Cl [ethacrynic acid]																		10	no selectivity
